Source: US9504755B2, “Multi-arm polymeric alkanoate conjugates” (Nektar Therapeutics, priority 2008, dated 2016)
Marks after values point to notes of the source that are not given here.

Columns and labels:
[1] = system: LoVo tumors; assay: Anti-tumor activity in LoVo colorectal mouse xenograft model; assay type: in vivo
Description: (§1) H460, LS174T and LoVo tumors were established in female athymic nude mice. Groups of 10 mice received a total of three single doses of 4-ARM-PEG20K-BA-DOC or docetaxel administered every 7 days (q7d×3) at several doses up to a maximum tolerated dose (MTD). Control groups received no treatment after tumor implant. Animals were weighed daily for the first five days and twice weekly thereafter. Tumor volumes were measured twice weekly after the first drug injection.
(§2) Anti-tumor activity was measured as changes in tumor volume, time to reach endpoint, and complete or partial tumor regression.
(§3) Treatment outcome was evaluated by Tumor Growth Delay (TGD), which is defined as the increase in median time to endpoint in a treatment group compared to the control group. Here it is expressed as % TGD, as a percentage to the median time to endpoint of the control group.
(§4) A tumor whose volume was reduced to 50% or less for three consecutive measurements compared to its volume on Day 1 was considered to be in partial regression. Complete regression was defined as volume […] 13.5 mm^3 for three consecutive measurements.
(§5) Acceptable toxicity was defined as a group mean body weight (BW) loss of less than 20% during the study and not more than one treatment-related death among ten treated animals.

[2] = system: H460 tumors; assay: Anti-tumor activity in H460 non-small cell lung mouse xenograft model; assay type: in vivo
Description: as §1, §2, §3, §4, §5

[3] = Plasma and tumor pharmacokinetics in H460 tumor-bearing nude mice; assay type: in vivo, mouse; conditions: female, HRLN nude, mouse, in vivo, iv
Description: To assess whether the improved antitumor activity was due to greater plasma and tumor docetaxel exposure following 4-ARM-PEG20K-BA-DOC administration, plasma and tumor homogenates were analyzed after a single IV administration of 4-ARM-PEG20K-BA-DOC or docetaxel in mice bearing H460 tumors. In looking at each of 4-ARM-PEG20K-BA-DOC and docetaxel dosed at their respective maximum tolerated doses (MTDs) of 33 and 25 mg/kg, the following was observed. […] The maximum plasma docetaxel concentration with 4-ARM-PEG20K-BA-DOC was 13-fold lower than that with docetaxel.
The objective of this study was to compare docetaxel pharmacokinetics following 4-ARM-PEG20K-BA-docetaxel with that following docetaxel administration, in plasma and tumor tissue of athymic female mice bearing H460 NSCLC tumors and to determine the effects on complete blood counts. This example summarizes the pharmacokinetic results.
H460 tumor cells were grown in vitro and implanted subcutaneously into female HRLN nude mice. When tumor sizes reached between 172 and 288 mg, animals were dosed by intravenous bolus injection with 25 mg/kg docetaxel or 33 mg/kg 4-ARM-PEG20K-BA-docetaxel at a dosing volume of 10 mL/kg. These dose levels correspond to the maximum tolerated doses for docetaxel and 4-ARM-PEG20K-BA-docetaxel administered on a q7d×3 schedule in this tumor model. Blood and tumor samples (n=7 timepoints with n=3/timepoint) were collected from 0 to 7 days after IV injection. Plasma and tumor samples were analyzed for docetaxel and 4-ARM-PEG20K-BA-docetaxel.

[4] = system: LS174T tumors; assay: Anti-tumor activity in LS174T colorectal mouse xenograft model; assay type: in vivo
Description: as §1, §2, §3, §4, §5

[5] = 12.7 mg/kg (38.1 mg/m^2), q7d×3
[6] = 16.9 mg/kg (50.7 mg/m^2), q7d×3
[7] = 22.5 mg/kg (67.5 mg/m^2), q7d×3
[8] = 18.7 mg/kg (56.1 mg/m^2), q7d×3
[9] = 25 mg/kg (75 mg/m^2), q7d×3 (MTD of docetaxel)
[10] = 25 mg/kg, analyte docetaxel, tumor
[11] = 30 mg/kg (90 mg/m^2), q7d×3 (MTD of docetaxel)
[12] = 30 mg/kg (90 mg/m^2), q7d×3 (MTD of docetaxel), listed as docetaxel

Structure (SMILES): CC(=O)O[C@@]12CO[C@@H]1C[C@H](O)[C@@]1(C)C(=O)[C@H](O)C3=C(C)[C@@H](OC(=O)[C@H](O)[C@@H](NC(=O)OC(C)(C)C)c4ccccc4)C[C@@](O)([C@@H](OC(=O)c4ccccc4)[C@H]21)C3(C)C [Docetaxel, reference compound]
- BW Loss (%) [1, 5]: 5.0%
- Day of BW Nadir [1, 5]: 24
- No. Surviving/No. Treated Mice [1, 5]: 10/10
- PR (partial regressions) [1, 5]: 0
- TGD (%) [1, 5]: 7%
- BW Loss (%) [1, 6]: 12.8%
- Day of BW Nadir [1, 6]: 21
- No. Surviving/No. Treated Mice [1, 6]: 10/10
- PR (partial regressions) [1, 6]: 0
- TGD (%) [1, 6]: 70** %
- BW Loss (%) [1, 7]: 14.6%
- Day of BW Nadir [1, 7]: 24
- No. Surviving/No. Treated Mice [1, 7]: 10/10
- PR (partial regressions) [1, 7]: 0
- TGD (%) [1, 7]: 32* %
- BW Loss (%) ([1]; 30 mg/kg (90 mg/m^2), q7d×3): 13.3%
- Day of BW Nadir ([1]; 30 mg/kg (90 mg/m^2), q7d×3): 21
- No. Surviving/No. Treated Mice ([1]; 30 mg/kg (90 mg/m^2), q7d×3): 10/10
- PR (partial regressions) ([1]; 30 mg/kg (90 mg/m^2), q7d×3): 0
- TGD (%) ([1]; 30 mg/kg (90 mg/m^2), q7d×3 (MTD for both agents)): 64** %
- TGD (%) ([1]; 30 mg/kg (90 mg/m^2), q7d×3 (MTD for both agents), listed as docetaxel): 64%
- BW Loss (%) ([2]; 10 mg/kg (30 mg/m^2), q7d×3): 0/0%
- No. Surviving/No. Treated Mice ([2]; 10 mg/kg (30 mg/m^2), q7d×3): 10/10
- TGD (%) ([2]; 10 mg/kg (30 mg/m^2), q7d×3): −2%
- BW Loss (%) ([2]; 14 mg/kg (42 mg/m^2), q7d×3): 4.1%
- Day of BW Nadir ([2]; 14 mg/kg (42 mg/m^2), q7d×3): 19
- No. Surviving/No. Treated Mice ([2]; 14 mg/kg (42 mg/m^2), q7d×3): 10/10
- TGD (%) ([2]; 14 mg/kg (42 mg/m^2), q7d×3): 4%
- BW Loss (%) [2, 8]: 9.7%
- Day of BW Nadir [2, 8]: 22
- No. Surviving/No. Treated Mice [2, 8]: 10/10
- TGD (%) [2, 8]: 23%
- Day of BW Nadir ([2]; 25 mg/kg (75 mg/m^2), q7d×3): 26
- No. Surviving/No. Treated Mice ([2]; 25 mg/kg (75 mg/m^2), q7d×3): 10/10
- BW Loss (%) [2, 9]: 15.5%
- TGD (%) [2, 9]: 48%
- TGD (%) ([2]; 25 mg/kg (75 mg/m^2), q7d×3 (MTD of docetaxel), listed as docetaxel): 48%
- antitumor activity below MTD ([2]; 4-ARM-PEG20K-BA-DOC at 19 mg/kg (58% of its MTD), docetaxel doses less than 25 mg/kg): did not
- concentration at 72 hr ([3]; 25 mg/kg): < 1 ng/mL
- AUC(0-t) ([3]; 25 mg/kg, AUClast, analyte docetaxel, tumor): 139 µg·h/mL
- Cmax ([3]; 25 mg/kg, analyte docetaxel, plasma): 2570 ng/mL
- Cmax [3, 10]: 2340 ng/mL
- Tmax [3, 10]: 4 h
- Tmax ([3]; analyte docetaxel, plasma): 0.5 h
- Tmax ([3]; analyte docetaxel, tumor): ≤ 4 h
- BW Loss (%) [4, 5]: 8.8%
- Day of BW Nadir [4, 5]: 23
- No. Surviving/No. Treated Mice [4, 5]: 10/10
- PR (partial regressions) [4, 5]: 0
- TGD (%) [4, 5]: 69* %
- BW Loss (%) [4, 6]: 11.2%
- Day of BW Nadir [4, 6]: 23
- No. Surviving/No. Treated Mice [4, 6]: 10/10
- PR (partial regressions) [4, 6]: 0
- TGD (%) [4, 6]: 96* %
- BW Loss (%) [4, 7]: 6.7%
- Day of BW Nadir [4, 7]: 23
- No. Surviving/No. Treated Mice [4, 7]: 10/10
- PR (partial regressions) [4, 7]: 0
- TGD (%) [4, 7]: 135* %
- Day of BW Nadir ([4]; 30 mg/kg (90 mg/m^2), q7d×3): 23
- No. Surviving/No. Treated Mice ([4]; 30 mg/kg (90 mg/m^2), q7d×3): 10/10
- BW Loss (%) [4, 11]: 16.6%
- PR (partial regressions) [4, 11]: 0
- TGD (%) [4, 11]: 166* %
- PR (partial regressions) [4, 12]: no partial regressions
- TGD (%) [4, 12]: 166%
